Data reported in patent publication US4927919A, “Chartreusin derivatives and salts thereof” (Ishihara Sangyo Kaisha, Ltd., priority 1985, dated 1990).

What was measured:
[1] = in vivo; cited from earlier work
[2] = system: P-388 leukemia; conditions: cancer inoculated i.p., drug i.p.; cited from earlier work
[3] = system: B-16 melanoma; conditions: cancer inoculated i.p., drug i.p.; cited from earlier work
[4] = system: cancer; conditions: different sites; cited from earlier work
[5] = Intestinal excretion percentage of drugs; assay type: in vivo; conditions: DDY mice, i.v. 40 mg/kg-b.w., 2 hours
Procedure: Each drug to be tested was administered to DDY mice intravenously at a dose of 40 mg/kg-b.w., and after 2 hours, contents of the small intestine and the large intestine and feces were extracted with a mixed solvent of chloroform and methanol. The extract was concentrated and each compound to be tested was quantitatively determined by high-speed liquid chromatography.
The drug tested was solution which prepared by dissolving the compound No. 17 in a small amount of dimethylacetoamide, followed by adding thereto a small amount of a surface active agent (e.g., Tween-80 ) and physiological saline.

[6] = system: L-1210 leukemia; conditions: cancer inoculated i.p., drug i.p.; cited from earlier work
[7] = system: P-388 leukemia cells; experiment: Antitumor activity against P-388 leukemia cells (i.p. implanted, i.v. drug); assay type: in vivo, BDF1 mice; conditions: for response vs control in vivo at 20 mg/kg / response vs control in vivo at 40 mg/kg: Mus musculus, P388, iv, 720 h, read-out: T/C of MST; for response vs control in vivo at 20 mg/kg: dose b: 20 mg/kg/d × 3 (days 1, 5, 9); for response vs control in vivo at 40 mg/kg: dose c: 40 mg/kg/d × 3 (days 1, 5, 9)
[8] = system: B-16 melanoma; experiment: Antitumor activity against B-16 melanoma (i.v. drug); assay type: in vivo, BDF1 mice; conditions: 60 mg/kg × 3 (days 1, 5, 9), 60-day observation
Procedure: BDF1 mice were implanted intraperitoneally with a B-16 melanoma cell suspension in an amount of 0.5 ml/mouse, and each drug to be tested was administered intravenously on the first, fifth and ninth days after the implantion. […] The T/C (%) was calculated in the same manner as aforementioned (1--1).
The B-16 melanoma cell suspension was prepared as follows. Tumor fragment, maintained by subcutaneous passages in C57BL/6 mice, were aseptically removed and passed through a sterile stainless-steel mesh. Thus obtained tumor was dispersed in a culture medium or physiological saline in an amount of 9 ml per 1 g of tumor.

[9] = system: L-1210 leukemia cells; experiment: Antitumor activity against L-1210 leukemia cells (i.p. implanted, i.v. drug); assay type: in vivo, BDF1 mice; conditions: 30-day observation
Procedure: BDF1 mice were implanted intraperitoneally with L-1210 leukemia cells at a rate of 1×10^5 cells/mouse, and each drug to be tested was administered intravenously on the first, fifth and ninth days after the implantation. […] The T/C (%) was calculated in the same manner as aforementioned (1--1).
The drugs tested were suspensions or solutions which prepared by mixing each compound to be tested and a small amount of a surface active agent (e.g., Tween-80), followed by adding thereto physiological saline.

[10] = Acute toxicity (LD50, single intravenous administration); parameters: species or system day mice; conditions: mouse, in vivo, mice, single i.v.
Excerpt: In Table 15 are shown acute toxicity values (LD50, mg/kg) in day mice in the case of intravenously administering (once) each of the compounds of this invention in the form of preparations shown in the Preparation Examples shown in Table 16.

Row | SMILES | Intestinal excretion percentage [(total amount of excretion/dose) × 100] [5] | T/C (%) of MST [8] | T/C (%) MST ([9]; 40 mg/kg × 3 (days 1, 5, 9)) | LD50 ([10]; Preparation Example 1) | response vs control in vivo at 20 mg/kg ([7]; i.v., 30-day observation) | response vs control in vivo at 40 mg/kg ([7]; i.v., 30-day observation) | other results
1 | CO[C@H]1[C@@H](O)[C@@H](C)O[C@H](O[C@H]2[C@H](Oc3cccc4c(O)c5c(=O)oc6ccc(C)c7c(=O)oc(c34)c5c67)O[C@H](C)[C@H](O)[C@@H]2O)[C@@H]1O [Chartreusin, chartreusin] | 37.6% |  |  |  |  |  | biliary excretion relative to absorption to tissues (in words) [1]: biliary excretion of chartreusin essentially has the precedence over absorption thereof to tissues; effect against P-388 leukemia (in words) [2]: effective; effect against B-16 melanoma (in words) [3]: effective; effect when site of cancer inoculation and site of administration were different (in words) [4]: not effective at all; effect against L-1210 leukemia (in words) [6]: effective; T/C (%) ([7]; comparison, chartreusin suspension in 0.2M Na2HPO4 / N,N-dimethylacetamide (4:1)): 105%
2 | COC1C(O)C(C)OC(OC2C(Oc3cccc4c(OC(=O)c5c(-c6ccccc6)noc5C)c5c(=O)oc6ccc(C)c7c(=O)oc(c34)c5c67)OC(C)C3OC(c4ccccc4)OC32)C1O (stereo not drawn) [Compound 14, 6-O-{4-(5-methyl-3-phenylisoxazolyl)-carbonyl}-3',4'-O-benzylidene-chartreusin] |  | 143% | 208% | ≥ 60 mg/kg | 207% | 250% | 
3 | COC1C(O)C(C)OC(OC2C(Oc3cccc4c(OC(=O)c5cc6ccccc6[nH]5)c5c(=O)oc6ccc(C)c7c(=O)oc(c34)c5c67)OC(C)C3OC(c4ccccc4)OC32)C1O (stereo not drawn) [Compound 17, 6-O-(2-indolyl-carbonyl)-3',4'-O-benzylidene-chartreusin] | 5.4% | 141% | 181% | ≥ 60 mg/kg | 199% | 255% | 
4 | COC1C(O)C(C)OC(OC2C(Oc3cccc4c(OC(=O)c5cccn5C)c5c(=O)oc6ccc(C)c7c(=O)oc(c34)c5c67)OC(C)C3OC(c4ccccc4)OC32)C1O (stereo not drawn) [Compound 2] |  | 141% | 243% |  | 189% | 230% | LD50 ([10]; Preparation Example 2): ≥ 60 mg/kg
5 | COC1C(O)C(C)OC(OC2C(Oc3cccc4c(OC(=O)c5cccs5)c5c(=O)oc6ccc(C)c7c(=O)oc(c34)c5c67)OC(C)C3OC(C)(C)OC32)C1O (stereo not drawn) [Compound 10] |  |  |  |  |  | 162% | T/C (%) MST ([9]; 80 mg/kg × 3 (days 1, 5, 9)): 140%; LD50 ([10]; Preparation Example 4): ≥ 80 mg/kg; T/C of MST ([7]; i.v., dose f: 80 mg/kg/d × 3 (days 1, 5, 9), 30-day observation): 207%
